# Test results reported in patent publication US20240358842A1, “PROTEIN STABILIZING COMPOUNDS CONTAINING USP7 LIGANDS” (Stablix, Inc., priority 2021, published 2024).
# Biological target: USP7 (Homo sapiens, UniProt Q93009)
# Assay: Ub-Rho cleavage assay
# Type: biochemical
# Details: Ub-Rho substrate, recombinant USP7; read-out: Ub (Rho) USP7.1 (IC50)
# Description: All fluorescence measurements were performed on a Molecular Devices FlexStation3 with excitation at 480 nm and emission 540 nm, PMT Gain: Medium, Flash Number: 10. […] Assay buffer for all measurements was 50 mM HEPES, 100 mM NaCl, 0.5 mM EDTA, 1 mM TCEP, 0.1 mg/ml BSA, 0.01% Tween-20, pH 7.8. […] Serial dilutions were made with a Mosquito HTS (SPT Labtech) nanoliter liquid handler. 200 nL of each compound in duplicate or DMSO control were transferred to the assay plate. The first two columns served as positive controls. 9.8 μl per well of USP7 working solution was added to the assay plate. Compound+Protein was incubated for 25 min at 25° C. 10 uL of Ub-Rho substrate was added per well and incubated for an additional 15 min at 25° C. Fluorescence was then measured. Percent response relative to DMSO controls was calculated in GraphPad or Scinamic, and the data was fitted to a non-linear regression to determine IC50 values.
# Chain of USP7 (Q93009 whole entry): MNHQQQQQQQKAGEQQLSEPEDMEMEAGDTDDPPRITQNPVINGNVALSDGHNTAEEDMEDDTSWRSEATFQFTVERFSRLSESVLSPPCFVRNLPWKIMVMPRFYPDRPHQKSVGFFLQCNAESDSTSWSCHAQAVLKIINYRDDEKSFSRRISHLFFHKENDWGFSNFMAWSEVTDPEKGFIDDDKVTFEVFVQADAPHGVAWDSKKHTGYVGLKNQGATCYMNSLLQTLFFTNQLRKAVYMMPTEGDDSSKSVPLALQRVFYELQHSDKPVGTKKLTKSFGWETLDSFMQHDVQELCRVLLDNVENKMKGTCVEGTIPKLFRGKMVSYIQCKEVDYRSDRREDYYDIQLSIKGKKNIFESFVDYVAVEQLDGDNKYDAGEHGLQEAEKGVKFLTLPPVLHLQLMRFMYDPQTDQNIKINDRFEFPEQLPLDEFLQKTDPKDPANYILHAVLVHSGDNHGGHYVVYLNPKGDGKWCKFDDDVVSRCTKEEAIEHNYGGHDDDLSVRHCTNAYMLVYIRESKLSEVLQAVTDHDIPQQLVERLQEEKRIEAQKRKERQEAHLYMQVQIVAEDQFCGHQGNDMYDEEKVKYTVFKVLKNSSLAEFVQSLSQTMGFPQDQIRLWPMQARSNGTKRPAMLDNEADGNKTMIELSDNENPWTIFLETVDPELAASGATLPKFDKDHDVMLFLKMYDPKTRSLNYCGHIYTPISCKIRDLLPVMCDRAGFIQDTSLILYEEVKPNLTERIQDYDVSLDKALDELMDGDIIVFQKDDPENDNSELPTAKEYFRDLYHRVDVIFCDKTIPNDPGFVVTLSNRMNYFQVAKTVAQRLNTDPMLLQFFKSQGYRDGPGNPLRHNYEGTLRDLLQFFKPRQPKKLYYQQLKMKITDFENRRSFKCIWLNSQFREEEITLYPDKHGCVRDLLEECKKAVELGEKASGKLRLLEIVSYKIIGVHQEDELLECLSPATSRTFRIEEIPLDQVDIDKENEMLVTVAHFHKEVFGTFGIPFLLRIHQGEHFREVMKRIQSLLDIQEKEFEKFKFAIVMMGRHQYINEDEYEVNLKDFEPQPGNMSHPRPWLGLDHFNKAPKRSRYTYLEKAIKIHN
row,Compound,IC50 [µM]
1,CCc1c(-c2ccc(C(=O)NCCCNC(=O)CCOCCOCCOCCOCCNC(=O)OC(C)(C)C)nc2)cnc(N)c1-c1ccc(O)cc1 [U58],1 to 100
2,C[C@H](CC(=O)N1CCC(O)(Cn2cnc(N3CCN(CCN)CC3)cc2=O)CC1)c1ccccc1 [U59],1 to 100
3,CCc1c(-c2ccc3[nH]ncc3c2)cnc(CNC(=O)OC(C)(C)C)c1-c1ccc(O)cc1 [U60],1 to 100
4,CCc1c(-c2ccc(C(=O)NCCN)nc2)cnc(N)c1-c1ccc(O)cc1 [U61],< 1
5,CCc1c(-c2ccc(C(=O)NC)nc2)cnc(NCCN)c1-c1ccc(O)cc1 [U62],1 to 100
6,CCc1c(-c2ccc3[nH]ncc3c2)cnc(CN)c1-c1ccc(O)cc1 [U63],1 to 100
7,CCc1c(-c2ccc(O)cc2)cnc(C=O)c1-c1ccc(O)cc1 [U64],1 to 100
8,CCc1c(-c2ccc3[nH]ncc3c2)cnc(C=O)c1-c1ccc(O)cc1 [U65],1 to 100
9,C[C@H](CC(=O)N1CCC(O)(Cn2cnc(NCCN3CCN(CCN=[N+]=[N-])CC3)cc2=O)CC1)c1ccccc1 [U69],< 1
10,CCc1c(-c2ccc(C(=O)NC)nc2)ccc(NCCN=[N+]=[N-])c1-c1ccc(O)cc1 [U70],1 to 100
11,CCc1c(-c2ccc(O)cc2)cnc(NCCN=[N+]=[N-])c1-c1ccc(C(=O)NC)nc1 [U71],1 to 100
12,CCc1c(-c2ccc3n[nH]cc3c2)cnc(CNC(=O)OC(C)C)c1-c1ccc(O)cc1 [U76],1 to 100
13,CCOC(=O)NCc1ccc(-c2ccc3n[nH]cc3c2)c(CC)c1-c1ccc(O)cc1 [U78],1 to 100
14,CS(=O)(=O)c1nccc(Nc2nc3ccc(NS(=O)(=O)c4cccs4)cc3s2)n1 [U80],> 100
15,CCc1c(-c2ccc3c(cnn3CCN)c2)cnc(CNC(=O)OC(C)(C)C)c1-c1ccc(O)cc1 [U82],1 to 100
16,NCc1cc(Nc2nc3ccc(NS(=O)(=O)c4cccs4)cc3s2)ncn1 [U83],> 100
17,O=C(O)c1ccc(Nc2nc3ccc(NS(=O)(=O)c4cccs4)cc3s2)nn1 [U84],> 100
18,CCc1c(-c2ccc3[nH]ncc3c2)c(C#N)nc(CNC(=O)OC(C)(C)C)c1-c1ccc(O)cc1 [U86],1 to 100
19,NCc1ccc(Nc2nc3ccc(NS(=O)(=O)c4cccs4)cc3s2)nc1 [U87],> 100

# The next lines start with the values.
row,IC50 [µM],Compound
1,> 100,CC(C)(C)OC(=O)N1CCC(C(=O)Nc2nc3ccc(N(S(=O)(=O)c4cccs4)S(=O)(=O)c4cccs4)cc3s2)CC1 [U66]
2,> 100,O=C(Nc1nc2ccc(NS(=O)(=O)c3cccs3)cc2s1)C1CCNCC1 [U67]
3,> 100,O=C(Nc1nc2ccc(NS(=O)(=O)c3cccs3)cc2s1)c1ccco1 [U68]
4,> 100,CN1CCC(C(=O)Nc2nc3ccc(NS(=O)(=O)c4ccc5c(c4)CC(=O)N5C)cc3s2)CC1 [U72]
5,1 to 100,CCn1cc(S(=O)(=O)Nc2ccc3nc(NC(=O)C4CCN(C)CC4)sc3c2)cn1 [U73]
6,> 100,CN1CCC(C(=O)Nc2nc3ccc(NS(=O)(=O)CC4CC4)cc3s2)CC1 [U74]
7,> 100,CN1CCC(C(=O)Nc2nc3ccc(N(C)S(=O)(=O)c4cccs4)cc3s2)CC1 [U75]
8,> 100,CN1CCCn2nc(C(=O)Nc3nc4ccc(NS(=O)(=O)c5cccs5)cc4s3)cc2C1 [U77]
9,> 100,CN1CCC(C(=O)Nc2nc3ncc(NS(=O)(=O)c4cccs4)cc3s2)CC1 [U79]
10,> 100,Cc1ccsc1S(=O)(=O)Nc1ccc2nc(NC(=O)C3CCN(C)CC3)sc2c1 [U81]
11,> 100,O=C(O)c1ccnc(Nc2nc3ccc(NS(=O)(=O)c4cccs4)cc3s2)n1 [U85]

# Biological target: T1, USP7 CD + UBL 1-5 (Homo sapiens, UniProt Q93009)
# T1 construct: USP7 CD +
# Assay: Surface plasmon resonance assay (SPR)
# Type: binding
# Details: kinetic KD; read-out: SPR USP7 CD + UBL 1-5 (KD_kinetic)
# Description: The surface plasmon resonance experiments were performed using a Cytiva (formerly GE Healthcare) Biacore 8K equipped with a Series S Sensor Chip SA. The ligands were immobilized via a biotin-modified biotin acceptor peptide. USP7 Ligands were diluted in running buffer (HBS-P+2% DMSO; 10 mM HEPES, pH 7.4, 150 mM NaCl, 1 mM DTT, 0.05% P20, 2% DMSO) to 100 μg/mL and injected at […] until a density between 500-10,000 RU was reached on flow-cell two of each channel, and flow cell one was left blank to serve as a reference surface. Both surfaces were washed until a stable baseline was achieved then 30 startup cycles to condition the surface. To collect kinetic and steady-state binding data, the small molecule analytes were prepared in three-fold dilution series in HBS-P+2% DMSO running buffer. Analytes were injected over both flow cells at a flow rate of […] at 25° C. The complex was allowed to associate for 60 seconds and dissociate for 300 seconds. Data were collected at 10 Hz. The data were fit to a simple 1:1 interaction model global data analysis within Cytiva Biacore Insight Evaluation Software.
# T1 sequence (Q93009 208-1102 limits assumed): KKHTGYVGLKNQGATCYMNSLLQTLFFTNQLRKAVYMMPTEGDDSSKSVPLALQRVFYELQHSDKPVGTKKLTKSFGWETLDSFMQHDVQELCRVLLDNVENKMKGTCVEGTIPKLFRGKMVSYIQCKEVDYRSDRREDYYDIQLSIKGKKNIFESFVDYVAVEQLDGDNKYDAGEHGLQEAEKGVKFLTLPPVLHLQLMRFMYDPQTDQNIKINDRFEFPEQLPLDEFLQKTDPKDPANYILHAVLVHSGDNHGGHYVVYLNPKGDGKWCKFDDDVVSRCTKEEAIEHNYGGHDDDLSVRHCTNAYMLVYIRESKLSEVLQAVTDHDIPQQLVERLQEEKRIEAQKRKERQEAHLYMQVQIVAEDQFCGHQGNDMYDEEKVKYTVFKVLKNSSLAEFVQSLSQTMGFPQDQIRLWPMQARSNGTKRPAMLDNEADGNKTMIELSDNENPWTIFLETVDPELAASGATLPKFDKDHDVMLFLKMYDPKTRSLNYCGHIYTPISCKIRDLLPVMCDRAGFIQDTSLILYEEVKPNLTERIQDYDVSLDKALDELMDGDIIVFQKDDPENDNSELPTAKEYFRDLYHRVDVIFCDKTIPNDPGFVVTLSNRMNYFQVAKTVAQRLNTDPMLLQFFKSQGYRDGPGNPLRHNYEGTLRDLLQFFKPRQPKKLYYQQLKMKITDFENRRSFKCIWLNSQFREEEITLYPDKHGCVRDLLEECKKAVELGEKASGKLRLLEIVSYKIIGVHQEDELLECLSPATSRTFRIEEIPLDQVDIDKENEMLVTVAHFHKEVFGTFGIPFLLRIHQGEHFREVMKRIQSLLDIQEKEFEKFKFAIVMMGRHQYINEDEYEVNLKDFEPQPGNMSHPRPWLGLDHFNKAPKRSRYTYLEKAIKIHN
row,Kd [µM],Compound
1,1 to 100,CN1CCCn2nc(C(=O)Nc3nc4ccc(NS(=O)(=O)c5cccs5)cc4s3)cc2C1 [U77]

# Same assay, conditions: steady-state KD; read-out: SPR USP7 CD + UBL 1-5 (KD_ss)
row,Compound,Kd [µM]
1,CCc1c(-c2ccc(C(=O)NCCCNC(=O)CCOCCOCCOCCOCCNC(=O)OC(C)(C)C)nc2)cnc(N)c1-c1ccc(O)cc1 [U58],1 to 100
2,C[C@H](CC(=O)N1CCC(O)(Cn2cnc(N3CCN(CCN)CC3)cc2=O)CC1)c1ccccc1 [U59],< 1
3,CCc1c(-c2ccc3[nH]ncc3c2)cnc(CNC(=O)OC(C)(C)C)c1-c1ccc(O)cc1 [U60],1 to 100
4,CCc1c(-c2ccc(C(=O)NCCN)nc2)cnc(N)c1-c1ccc(O)cc1 [U61],< 1
5,CCc1c(-c2ccc(C(=O)NC)nc2)cnc(NCCN)c1-c1ccc(O)cc1 [U62],< 1
6,CCc1c(-c2ccc3[nH]ncc3c2)cnc(CN)c1-c1ccc(O)cc1 [U63],1 to 100
7,CCc1c(-c2ccc(O)cc2)cnc(C=O)c1-c1ccc(O)cc1 [U64],1 to 100
8,CCc1c(-c2ccc3[nH]ncc3c2)cnc(C=O)c1-c1ccc(O)cc1 [U65],1 to 100
9,C[C@H](CC(=O)N1CCC(O)(Cn2cnc(NCCN3CCN(CCN=[N+]=[N-])CC3)cc2=O)CC1)c1ccccc1 [U69],< 1
10,CCc1c(-c2ccc(C(=O)NC)nc2)ccc(NCCN=[N+]=[N-])c1-c1ccc(O)cc1 [U70],1 to 100
11,CCc1c(-c2ccc(O)cc2)cnc(NCCN=[N+]=[N-])c1-c1ccc(C(=O)NC)nc1 [U71],< 1
12,CCc1c(-c2ccc3n[nH]cc3c2)cnc(CNC(=O)OC(C)C)c1-c1ccc(O)cc1 [U76],1 to 100
13,CCOC(=O)NCc1ccc(-c2ccc3n[nH]cc3c2)c(CC)c1-c1ccc(O)cc1 [U78],1 to 100
14,CS(=O)(=O)c1nccc(Nc2nc3ccc(NS(=O)(=O)c4cccs4)cc3s2)n1 [U80],1 to 100
15,CCc1c(-c2ccc3c(cnn3CCN)c2)cnc(CNC(=O)OC(C)(C)C)c1-c1ccc(O)cc1 [U82],1 to 100
16,NCc1cc(Nc2nc3ccc(NS(=O)(=O)c4cccs4)cc3s2)ncn1 [U83],1 to 100
17,O=C(O)c1ccc(Nc2nc3ccc(NS(=O)(=O)c4cccs4)cc3s2)nn1 [U84],1 to 100
18,CCc1c(-c2ccc3[nH]ncc3c2)c(C#N)nc(CNC(=O)OC(C)(C)C)c1-c1ccc(O)cc1 [U86],1 to 100
19,NCc1ccc(Nc2nc3ccc(NS(=O)(=O)c4cccs4)cc3s2)nc1 [U87],1 to 100

# Next, values leading:
row,Kd [µM],Compound
1,1 to 100,CC(C)(C)OC(=O)N1CCC(C(=O)Nc2nc3ccc(N(S(=O)(=O)c4cccs4)S(=O)(=O)c4cccs4)cc3s2)CC1 [U66]
2,1 to 100,O=C(Nc1nc2ccc(NS(=O)(=O)c3cccs3)cc2s1)C1CCNCC1 [U67]
3,1 to 100,O=C(Nc1nc2ccc(NS(=O)(=O)c3cccs3)cc2s1)c1ccco1 [U68]
4,> 100,CN1CCC(C(=O)Nc2nc3ccc(NS(=O)(=O)c4ccc5c(c4)CC(=O)N5C)cc3s2)CC1 [U72]
5,> 100,CCn1cc(S(=O)(=O)Nc2ccc3nc(NC(=O)C4CCN(C)CC4)sc3c2)cn1 [U73]
6,1 to 100,CN1CCC(C(=O)Nc2nc3ccc(NS(=O)(=O)CC4CC4)cc3s2)CC1 [U74]
7,> 100,CN1CCC(C(=O)Nc2nc3ccc(N(C)S(=O)(=O)c4cccs4)cc3s2)CC1 [U75]
8,1 to 100,CN1CCCn2nc(C(=O)Nc3nc4ccc(NS(=O)(=O)c5cccs5)cc4s3)cc2C1 [U77]
9,> 100,CN1CCC(C(=O)Nc2nc3ncc(NS(=O)(=O)c4cccs4)cc3s2)CC1 [U79]
10,1 to 100,Cc1ccsc1S(=O)(=O)Nc1ccc2nc(NC(=O)C3CCN(C)CC3)sc2c1 [U81]
11,> 100,O=C(O)c1ccnc(Nc2nc3ccc(NS(=O)(=O)c4cccs4)cc3s2)n1 [U85]
